IC50 and AC50 data for three molecules are collected here from ChEMBL document CHEMBL1221404, “Caylobolide B, a macrolactone from symplostatin 1-producing marine cyanobacteria Phormidium spp. from Florida” (J Nat Prod, 2010).

What all share (type): functional, cell-based
One assay has as its system HT-29. The assay is described as follows: Cytotoxicity against human HT-29 cells after 48 hrs by MTT assay. The note with it: HT-29, 48 h. For orientation: Tetrazolium assays rely on reduction of a dye to a coloured formazan, in cell work by metabolically active cells.
A further assay concerns HCT-116. The assay is described as follows: Cytotoxicity against human HCT116 cells.
Another assay deals with HeLa. The assay is described as follows: Cytotoxicity against human HeLa cells after 48 hrs by MTT assay.

Take `CC[C@H](C)[C@@H]([C@@H](CC(=O)N1CCC[C@H]1[C@H](OC)[C@@H](C)C(=O)N[C@@H](Cc1ccccc1)c1nccs1)OC)N(C)C(=O)[C@@H](NC(=O)[C@H]([C@@H](C)CC)N(C)C)C(C)C` [SYMPLOSTATIN 1]: in the assay with HT-29, it took 0.0015 µM to reach half-maximal inhibition (IC50).
For the molecule `CCCCC(C)C1C[C@@H](O)CCC[C@H](O)C[C@@H](O)C[C@@H](O)CCCC(O)CCCC(O)CCCC(O)CCCC(O)CC(O)CCC/C(C)=C/C(=O)O1` (some centres undefined) [CAYLOBOLIDE A], the AC50 entry in the assay with HCT-116 is recorded as “Active”.
As for `CCCCC(C)C1CC(O)CCC[C@H](O)C[C@@H](O)C[C@@H](O)CCCC(O)CCCC(O)CCCC(O)CCC[C@@H](O)C[C@@H](O)CCC/C(C)=C/C(=O)O1` (some centres undefined) [CAYLOBOLIDE B], the IC50 (commonly the concentration needed to halve the response being measured) came out at 4.5 µM with HT-29 and 12.2 µM in the assay with HeLa.
